Measured values taken from patent publication US5612341A, “Brominated hexahydroxybiphenyl derivatives” (Biotech Research Laboratories, priority 1995, dated 1997).
≈ marks a conversion by molar mass, not a printed value. Structures can show the parent of a compound that is named as a salt. Where two headings read alike, the source gives them in different places.

Key:
Assay type in all cases: cell-based
[1] = system: chronically HIV-1 infected promonocytic cell line, U1; experiment: Virus expression in chronically HIV-1 infected promonocytic U1 cells (p24 ELISA)
Procedure: Therefore, compounds 4 and 5 were separately added for 72 hours to the chronically HIV-1 infected T cell line, ACH-2, and to the chronically HIV-1 infected promonocytic cell line, U1.
HIV-1 chronically infected T cell line, ACH-2, ^15 and HIV-1 chronically infected promonocytic cell line, U1 ^16 were continuously maintained in RPMI1640 with 10% fetal calf serum (FCS). For experiments, the cell lines were only used in log-phase of growth. Cells (1×10^6 cells/well) and either various concentrations of 4,5, AZT or media alone were added to 24-well plates in the presence or absence of PMA (10^-8 M). After 72 hours at 37° C. and 5% CO2, an aliquot of the cell-free supernatants was collected and analyzed for p24 antigen by ELISA.

HIV-1 (IIIB isolate) = experiment: microbe, parasite or virus in culture; conditions: for Therapeutic Index: 5760 min; for EC50: acutely infected H9 lymphocytes; for anti-HIV activity: result in words
Procedure: (§1) The H9 T cell line was maintained in continuous culture with complete medium (RPMI and 10% fetal calf serum) at 5% CO2 and 37° C. and was used in experiments only when in log phase of growth. The cells were incubated with HIV-1 (IIIB isolate, TCID50 10^4 IU/mL, at a multiplicity of infection of 0.1-0.01 IU/cell) for 1 hour at 37° C. and 5% CO2. The cells then were washed thoroughly to remove unabsorbed virions and resuspended at 4×10^5 cells/mL in complete medium. Aliquots (1 mL) were placed in wells of 24-well culture plates containing an equal volume of test compound (diluted in the culture medium). After a four day incubation at 37° C., cell density of uninfected cultures was determined by counting cells in a Coulter counter to assess toxicity of the test compound. A p24 antigen ELISA assay was used to determine the level of virus released in the medium of the HIV-infected cultures. The p24 antigen assay uses an HIV-1 anti-p24 specific monoclonal antibody as the capture antibody coated on 96 well plates. Following a sample incubation period, rabbit serum containing antibodies for HIV-1 p24 is used to tag any p24 "captured" onto the microtiter well surface. […] The cut-off for the p24 ELISA assay is 12.5 pg/mL. P24 in the culture medium was quantitated against a standard curve containing known amounts of p24. The effective (EC50) and inhibitory concentrations (for anti-HIV activity and cytotoxicity, respectively) were determined.

H9 T cell line = experiment: Toxicity to uninfected H9 cells (cell count)
Procedure: as §1

[2] = Table I, cytotoxicity, uninfected H9 cells
[3] = Homo sapiens, H9, Table I, cytotoxicity, uninfected H9 cells, read-out: IC50
[4] = Human immunodeficiency virus 1, IIIB, Lymphocyte, Table I, read-out: EC50
[5] = T-cell, Table IA, concentration that causes a 50% reduction in total cell number, read-out: IC50
[6] = Human immunodeficiency virus 1, IIIB, Lymphocyte, Table IA, read-out: EC50

| Structure (SMILES) | EC50 (HIV-1 (IIIB isolate); [4]) [µg/mL] | Therapeutic Index (HIV-1 (IIIB isolate); Table I, IC50/EC50) | anti-HIV activity (HIV-1 (IIIB isolate)) | IC50 (H9 T cell line; [3]) [µg/mL] | further results |
| --- | --- | --- | --- | --- | --- |
| Cc1cn([C@H]2C[C@H](N=[N+]=[N-])[C@@H](CO)O2)c(=O)[nH]c1=O [AZT, azidothymidine, reference compound] |  |  |  |  | p24 ([1]; +Media, 0.1 μg/mL): 18 pg/mL; p24 ([1]; +Media, 1 μg/mL): 12 pg/mL; p24 ([1]; +Media, 10 μg/mL): 13 pg/mL; p24 ([1]; +Media, 100 μg/mL): 22 pg/mL; p24 ([1]; +PMA, 0.1 μg/mL): 8,070 pg/mL; p24 ([1]; +PMA, 1 μg/mL): 8,218 pg/mL; p24 ([1]; +PMA, 10 μg/mL): 9,299 pg/mL; p24 ([1]; +PMA, 100 μg/mL): 9,338 pg/mL |
| COc1c(Br)c(C(=O)O)c(-c2c3c(c(OC)c(Br)c2C(=O)O)OCO3)c2c1OCO2 [Compound 6, 3,3'-Dibromo-4,4'-dimethoxy-5,6,5'6'-bimethylenedioxy-2,2'-dicarboxy biphenyl] |  | 1 | decrease in the anti-HIV activity |  | EC50 (HIV-1 (IIIB isolate); Table I): > 100 µg/mL; IC50 (H9 T cell line; [2]): > 100 µg/mL |
| COc1c(Br)c(C(=O)O)c(-c2c3c(c(OC)c(Br)c2C(=O)O)OCO3)c2c1OCO2 [Compound 7, 3,3'-Dibromo-4,4'-dimethoxy-5,6,5'6'-bimethylenedioxy-2,2'-dicarboxy biphenyl disodium salt] |  |  | decrease in the anti-HIV activity |  | Therapeutic Index (HIV-1 (IIIB isolate); Table I, IC50/EC50, disodium salt): 1; EC50 (HIV-1 (IIIB isolate); Table I, disodium salt): > 100 µg/mL; IC50 (H9 T cell line; Table I, cytotoxicity, uninfected H9 cells, disodium salt): > 100 µg/mL |
| COc1c2c(c3c(c1Br)c(=O)oc(=O)c1c(Br)c(OC)c4c(c13)OCO4)OCO2 [Compound 8, 3,3'-Dibromo-4,4'-dimethoxy-5,6,5'6'-bimethylenedioxy biphenyl 2,2'-dicarboxylic anhydride] |  |  |  | > 100 |  |
| CCOC(=O)c1c(Br)c(OC)c2c(c1-c1c3c(c(OC)c(Br)c1C(=O)O)OCO3)OCO2 [Compound 9, 3,3'-Dibromo-4,4'-dimethoxy-5,6,5'6'-bimethylenedioxy-2-ethoxycarbonyl-2'-carboxy biphenyl] | 60 (≈ 104 µM) | > 1.7 | decrease in the anti-HIV activity | > 100 |  |
| CCOC(=O)c1c(Br)c(OC)c2c(c1-c1c3c(c(OC)c(Br)c1C(=O)O)OCO3)OCO2 [Compound 10, 3,3'-Dibromo-4,4'-dimethoxy-5,6,5'6'-bimethylenedioxy-2-ethoxycarbonyl-2'-carboxy biphenyl monosodium salt] |  |  |  |  | IC50 (H9 T cell line; [2]): > 100 µg/mL |
| COc1c(Br)c(C(=O)O)c(-c2c3c(c(OC)c(Br)c2C(=O)OCC[N+](C)(C)C)OCO3)c2c1OCO2 [Compound 11, 3,3'-Dibromo-4,4'-dimethoxy-5,6,5'6'-bimethylenedioxy-2-carboxy-2'-(β-N,N,N-trimethylamino)ethoxycarbonyl biphenyl chloride] | > 100 | 1 | decrease in the anti-HIV activity | > 100 |  |
| COc1c(Br)c(C(=O)O)c(-c2c3c(c(OC)c(Br)c2C(=O)NCCN2CCNCC2)OCO3)c2c1OCO2 [Compound 12, 3,3'-Dibromo-4,4'-dimethoxy-5,6,5'6'-bimethylenedioxy-2-carboxy-2'-(β-N-piperazine)ethylcarbonyl biphenyl] | 30 (≈ 45.5 µM) | > 3.3 | decrease in the anti-HIV activity | > 100 |  |
| COc1c(Br)c(C(=O)O)c(-c2c3c(c(OC)c(Br)c2C(=O)NCCN2CCCC2)OCO3)c2c1OCO2 [Compound 13, 3,3'-Dibromo-4,4'-dimethoxy-5,6,5'6'-bimethylenedioxy-2-carboxy-2'-(β-N-pyrrolidinyl)ethylcarbonyl biphenyl hydrobromide] | > 100 | 1 | decrease in the anti-HIV activity | > 100 |  |
| COc1c(Br)c(C(=O)O)c(-c2c3c(c(OC)c(Br)c2C(=O)O)OCO3)c2c1OCO2 [Compound 14, 3,3'-Dibromo-4,4'-dimethoxy-5,6,5',6'-bimethylenedioxy-2,2'-dicarboxy biphenyl di-1-(2-hydroxyethyl)pyrrolidinium salts] |  |  |  |  | EC50 (HIV-1 (IIIB isolate); Table I): 17 µg/mL |
| COC(=O)c1c2c(c(OC)c(Br)c1-c1c(Br)c(OC)c3c(c1C(=O)OC)OCO3)OCO2 [Compound 110, 6,6'-Dibromo-5,5'-dimethoxy-3,4,3'4'-bimethylenedioxy-2,2'-dimethoxycarbonyl biphenyl] |  |  |  |  | EC50 (HIV-1 (IIIB isolate); Table IA): no inhibition; IC50 (H9 T cell line; [5]): 45 µg/mL (≈ 78.1 µM) |
| COC(=O)c1cc2c(c(OC)c1-c1c(C(=O)OC)cc3c(c1OC)OCO3)OCO2 [Compound 114, 6,6'-dimethoxy-4,5,4'5'-bimethylenedioxy-2,2'-dimethoxycarbonyl biphenyl] |  |  |  |  | EC50 (HIV-1 (IIIB isolate); [6]): 65 µg/mL (≈ 155 µM); Therapeutic Index (HIV-1 (IIIB isolate); Table IA, ratio IC50/EC50): > 1.2; IC50 (H9 T cell line; [5]): > 100 µg/mL |
| COC(=O)c1cc2c(c(OC)c1-c1c(C(=O)OC)cc(OC)c3c1OCO3)OCO2 [Compound 115, 4,6'-dimethoxy-5,6,4'5'-binethylenedioxy,2,2'-dimethoxycarbonyl biphenyl] |  |  |  |  | EC50 (HIV-1 (IIIB isolate); [6]): 7.5 µg/mL (≈ 17.9 µM); Therapeutic Index (HIV-1 (IIIB isolate); Table IA, ratio IC50/EC50): > 13; IC50 (H9 T cell line; [5]): > 100 µg/mL |
| COC(=O)c1c(-c2cc(OC)c3c(c2C(=O)OC)OCO3)cc(OC)c2c1OCO2 [Compound 116, 5,5'-Dimethoxy-3,4,3 '4'-bismethylenedioxy-2,2'-dimethoxycarbonyl biphenyl] |  |  |  |  | EC50 (HIV-1 (IIIB isolate); [6]): 70 µg/mL (≈ 167 µM); Therapeutic Index (HIV-1 (IIIB isolate); Table IA, ratio IC50/EC50): > 1.4; IC50 (H9 T cell line; [5]): > 100 µg/mL |

The next lines start with results.

| EC50 (HIV-1 (IIIB isolate); [4]) [µg/mL] | Structure (SMILES) | Therapeutic Index (HIV-1 (IIIB isolate); Table I, IC50/EC50) | anti-HIV activity (HIV-1 (IIIB isolate)) | IC50 (H9 T cell line; [3]) [µg/mL] | further results |
| --- | --- | --- | --- | --- | --- |
| 2 (≈ 2.79 µM) | CCCCCCOC(=O)c1c(Br)c(OC)c2c(c1-c1c3c(c(OC)c(Br)c1C(=O)OCCCCCC)OCO3)OCO2 [Compound 15, 3,3'-Dibromo-4,4'-dimethoxy-5,6,5'6'-bimethylenedioxy-2,2'-dihexanoxycarbonyl biphenyl] | > 50 |  | > 100 |  |
| > 100 | COC(=O)c1cc(OCc2ccccc2)c(OCc2ccccc2)c(OC)c1-c1c(OC)c(OCc2ccccc2)c(OCc2ccccc2)c(Br)c1C(=O)OC [Compound 16, 2,2'-Dimethoxycarbonyl-3-bromo-4,4',5,5'-tetrakis(benxyloxy)-6,6'-dimethoxybiphenyl] | 1 | no anti-HIV activity | > 100 |  |
| > 100 | COC(=O)c1c(Br)c(OCc2ccccc2)c(OCc2ccccc2)c(OC)c1-c1c(OC)c(OCc2ccccc2)c(OCc2ccccc2)c(Br)c1C(=O)OC [Compound 17, 2,2'-Dimethoxycarbonyl-3,3'-dibromo-4,4'5,5'-tetrakis(benzyloxy)-6,6'-dimethoxy biphenyl] | 1 | no anti-HIV activity | > 100 |  |
| 100 (≈ 129 µM) | COc1c(OCc2ccccc2)c(OCc2ccccc2)cc(CO)c1-c1c(CO)c(Br)c(OCc2ccccc2)c(OCc2ccccc2)c1OC [Compound 18, 2,2'-Dihydroxymethyl-3-bromo-4,4'5,5'-tetrakis(benzyloxy)-6,6'-dimethoxy biphenyl] | > 1 | no anti-HIV activity | > 100 |  |
| > 100 | COc1c(OCc2ccccc2)c(OCc2ccccc2)c(Br)c(CO)c1-c1c(CO)c(Br)c(OCc2ccccc2)c(OCc2ccccc2)c1OC [Compound 19, 2,2'-Dihydroxymethyl-3,3'-dibromo-4,4'5,5'-tetrakis(benzyloxy)-6,6'-dimethoxy diphenyl] | 1 | no anti-HIV activity | > 100 |  |
